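Cells were grown in 96-well plates and exposed to each compound for 48 hours at five concentrations; endpoints were interpolated linearly between bracketing concentrations, or set to the highest concentration if not reached. At the GI50, growth is halved.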 Activity calls are given as the source filed them. Rule as the data show it: active = GI50 up to about 1.1 µM and inactive = higher.
Tests used:
Test in all cases: DTP human tumour cell line panel, 48 h
A498 = system: A498
CAKI-1 = system: CAKI-1
DU-145 = system: DU-145
HCT-15 = system: HCT-15
HL-60 = system: HL-60
HOP-92 = system: HOP-92
K562 = system: K562
KM12 = system: KM12
M14 = system: M14
MOLT-4 = system: MOLT-4
NCI-H226 = system: NCI-H226
NCI-H460 = system: NCI-H460
NCI-H522 = system: NCI-H522
NCI/ADR-RES = system: NCI/ADR-RES
OVCAR-5 = system: OVCAR-5
SF-295 = system: SF-295
SK-MEL-5 = system: SK-MEL-5
UACC-62 = system: UACC-62
UO-31 = system: UO-31
UACC-257 = system: UACC-257

Structure (SMILES)	GI50 (A498)	GI50 (CAKI-1)	GI50 (DU-145)	GI50 (HCT-15) [µM]	GI50 (HL-60)	GI50 (HOP-92)	GI50 (K562)	GI50 (KM12)	GI50 (M14)	GI50 (MOLT-4)	GI50 (NCI-H226)	GI50 (NCI-H460)	GI50 (NCI-H522)	GI50 (NCI/ADR-RES)	GI50 (OVCAR-5)	GI50 (SF-295)	GI50 (SK-MEL-5)	GI50 (UACC-62)	GI50 (UO-31)	GI50 (UACC-257)
CNC(=O)CCC(NC(=O)OC(C)(C)C)C(=O)NC(Cc1ccc(NC(=O)CCCCC(C)=O)cc1)C(=O)NCC(=O)NC (configuration not stated)	> 100 µM (inactive)	> 100 µM (inactive)	> 100 µM (inactive)	> 100	> 100 µM (inactive)	> 100 µM (inactive)	> 100 µM (inactive)	> 100 µM (inactive)	> 100 µM (inactive)	> 100 µM (inactive)	> 100 µM (inactive)	> 100 µM (inactive)	> 100 µM (inactive)	> 100 µM (inactive)	> 100 µM (inactive)	> 100 µM (inactive)	> 100 µM (inactive)	> 100 µM (inactive)	> 100 µM (inactive)	
Cc1nc(Nc2ccc(Cl)cc2Cl)sc1C(=O)Nc1ccccc1	> 100 µM (inactive)	49.8 µM (inactive)	> 100 µM (inactive)	74.1	> 10 µM (inactive)	31.3 µM (inactive)	24 µM (inactive)	35.8 µM (inactive)	80.9 µM (inactive)	10.9 µM (inactive)	< 0.01 µM (active)	37.9 µM (inactive)	38.5 µM (inactive)	96.6 µM (inactive)	> 100 µM (inactive)	29.9 µM (inactive)	37.9 µM (inactive)	82.6 µM (inactive)	29.6 µM (inactive)	61.4 µM (inactive)
COc1cc2cc(C(=O)N3CC(CCl)c4c3cc(NCCN)c3ccccc43)[nH]c2c(OC)c1OC (configuration not stated)	< 0.01 µM (active)	< 0.01 µM (active)	< 0.01 µM (active)	0.0105		< 0.01 µM (active)	< 0.01 µM (active)	< 0.01 µM (active)	< 0.01 µM (active)	< 0.01 µM (active)	0.0117 µM (active)	< 0.01 µM (active)	< 0.01 µM (active)	< 0.01 µM (active)	< 0.01 µM (active)	< 0.01 µM (active)	< 0.01 µM (active)	< 0.01 µM (active)	< 0.01 µM (active)	0.0105 µM (active)
O=S1(=O)N=C(SCc2c[nH]c3ccccc23)N(c2ccccc2)c2ccncc21	27 µM (inactive)	67.5 µM (inactive)	35.2 µM (inactive)	> 100	> 100 µM (inactive)	53.7 µM (inactive)	> 100 µM (inactive)	> 100 µM (inactive)	> 100 µM (inactive)	46.7 µM (inactive)	97.7 µM (inactive)	> 100 µM (inactive)	37.5 µM (inactive)	> 100 µM (inactive)	94.2 µM (inactive)	> 100 µM (inactive)	> 100 µM (inactive)	> 100 µM (inactive)	18.5 µM (inactive)	> 100 µM (inactive)
CC(C)Cc1c(C#N)c(C#N)c(N)n1Cc1ccccc1	> 100 µM (inactive)	> 100 µM (inactive)	> 100 µM (inactive)	> 100	> 100 µM (inactive)	> 100 µM (inactive)	> 100 µM (inactive)	> 100 µM (inactive)	> 100 µM (inactive)	> 100 µM (inactive)	> 100 µM (inactive)		> 100 µM (inactive)	> 100 µM (inactive)	> 100 µM (inactive)	> 100 µM (inactive)	> 100 µM (inactive)	55.5 µM (inactive)	> 100 µM (inactive)	> 100 µM (inactive)
CC1=CC(=O)c2cccc(NC3=NCCO3)c21	38 µM (inactive)	> 100 µM (inactive)	74.1 µM (inactive)	49.4	19.7 µM (inactive)	36.1 µM (inactive)	34.5 µM (inactive)	30.4 µM (inactive)	47.3 µM (inactive)	32.7 µM (inactive)	29 µM (inactive)	31.3 µM (inactive)	69.8 µM (inactive)	29.5 µM (inactive)	> 100 µM (inactive)	> 100 µM (inactive)	23.2 µM (inactive)	> 100 µM (inactive)	76.6 µM (inactive)	
CCC[C@H](O)[C@@H](CNc1cc(NC(C)=O)nc(NC(C)=O)n1)N(Cc1ccccc1)Cc1ccccc1	30.8 µM (inactive)	18.2 µM (inactive)	61.9 µM (inactive)	31.7		34.4 µM (inactive)	> 100 µM (inactive)	11.1 µM (inactive)	26.5 µM (inactive)	4.47 µM (inactive)	14.3 µM (inactive)	21.8 µM (inactive)	8.75 µM (inactive)	19.3 µM (inactive)	27.9 µM (inactive)	6.44 µM (inactive)	20.9 µM (inactive)	18.3 µM (inactive)	18.1 µM (inactive)	29.2 µM (inactive)
CC[C@@]1(O)CC(OC2CC(N3CCOCC3)C(O)C(C)O2)c2c(O)c3c(c(O)c2[C@H]1O)C(=O)c1cccc(O)c1C3=O (some centres not stated)	0.191 µM (active)		0.084 µM (active)	0.0573	0.0311 µM (active)	0.0429 µM (active)	0.112 µM (active)	0.182 µM (active)	0.356 µM (active)		0.0893 µM (active)	0.00686 µM (active)	0.166 µM (active)	0.145 µM (active)	0.371 µM (active)	0.0575 µM (active)	0.0966 µM (active)	0.0667 µM (active)		0.214 µM (active)
